Here are results for 1 compound from patent US11517581B2, “Zika virus protease inhibitors and methods of use thereof” (priority 2017, dated 2022).

Data set [1] has as its system ZIKV. Kind of data set: Dexamethasone-immunosuppressed mouse model of disseminated ZIKV infection. Format: in vivo, BALB/c mice. How it is done:
Approval was obtained from the Committee on the Use of Live Animals in Teaching and Research of The University of Hong Kong. […] Phosphate-buffered saline (PBS) was used to dilute the virus stocks to the desired concentration, and inocula were back-titrated to verify the dose given. On the day of virus inoculation, a dose of the virus equivalent to 6×10^6 TCID50 (3.24×10^6 plaque forming units) in […] of PBS was inoculated via the intraperitoneal route into mice under ketamine (100 mg/kg) and xylazine (10 mg/kg) anesthesia. Mice in the negative-control groups were injected with the same volume of PBS. Mice were monitored three times each day for clinical signs of disease and a numerical score was assigned at each observation as previously described (Chan et al., 2016c). Three mice per group were sacrificed at 5 dpi for virological, histological, and immunohistochemistry analyses. The remaining mice were sacrificed at 14 dpi or euthanized when there was ≥20% weight loss or ≥10% weight loss with ≥1 clinical sign. Samples of major organs were collected at necropsy for virological, histological, and immunohistochemical analyzes as we previously described (Chan et al., 2016c. Chan et al., 2017b). Blood samples were also collected for RNA extraction and qRT-PCR analysis.

The conditions of data set [2]: human; cited from earlier work.
For data set [3], the system named is ZIKV. Nature of the data set: MTT-based CPE inhibition assay in Vero cells. The format is cell-based. The following applies: Zika virus, 144 h, MOI 0.0002, 6 days. How it is done: (§1) Briefly, Vero or Huh-7 cells (4×10^4 cells/well) were incubated with different concentrations of individual drug for 24 h, followed by the addition of 10 μl/well of 5 mg/ml MTT substrate. The monolayers were incubated as above for 4 h (away from light). Finally, 100 μl of 10% sodium dodecyl sulfate (SDS) with 0.01M HCl was added and further incubated at 37° C. with 5% CO2 overnight. […] Briefly, the drug compounds were diluted with serum-free MEM and added to confluent Vero cells in 96-well culture plates (4×10^4 cells/well) in triplicate for 2 h at 37° C. After incubation, the drug-containing media were removed, and ZIKV (multiplicity of infection, MOI=0.0002) was added together with fresh drug-compound media to each well. Following 1 h of adsorption at 37° C., the virus-compound mixture was removed and the cells were washed twice with MEM to remove unbound virus. Subsequently, media with antiviral compounds were added to the cells for further incubation for 6 days at 37° C. in a 5% CO2 humidified environment. CPE was examined by inverted light microscopy (Chan et al., 2016b). Thereafter, MTT substrate and SDS-HCl were added sequentially as mentioned above. The half maximal inhibitory concentration (IC50) and CC50 were calculated using Sigma plot (SPSS) in an Excel add-in ED50V10.

In data set [4] the test system is ZIKV (Puerto Rico strain PRVABC59) in Vero cells. Nature of the data set: Viral load reduction assay, Vero cells. The format is cell-based, Zika virus. The note with it: culture supernatants. The procedure:
(§2) A clinical isolate of ZIKV (Puerto Rico strain PRVABC59) obtained from a patient in the recent South American epidemic was kindly provided by Brandy Russell and Barbara Johnson, Centers for Disease Control and Prevention, USA. The virus was cultured and titrated as we previously described with slight modifications (Chan et al., 2016b; Zhou et al., 2014). The virus was amplified by three additional passages in Vero cells (ATCC) in minimum essential medium (MEM) supplemented with 1% fetal bovine serum (FBS, Gibco™, Life Technologies Corporation, Massachusetts, USA) and 100 units/ml penicillin plus 100 μg/ml streptomycin to make working stocks of the virus (4×10^6 50% tissue culture infectious dose (TCID50)/ml). For virus titration, aliquots of ZIKV were applied on confluent Vero cells in 96-well plates for the TCID50 assay as was previously described with slight modifications (Chan et al., 2016b; Zhou et al., 2014). Briefly, serial 10-fold dilutions of ZIKV were inoculated in a Vero cell monolayer in quadruplicate and cultured in penicillin/streptomycin-supplemented MEM and 1% FBS. […] Viral titer was calculated using the Reed and Munch endpoint method. One TCID50 was interpreted as the amount of virus that causes cytopathic effect in 50% of inoculated wells.

Data set [5] has as its system ZIKV (Puerto Rico strain PRVABC59). Nature of the data set: Viral load reduction assay (qRT-PCR) in Huh-7 cells. The format is cell-based. The following applies: Zika virus, 0.05 MOI, 48 hours post-infection, supernatant qRT-PCR. How it is done:
as §2

Data set [6] relates to ZIKV. Nature of the data set: Plaque reduction assay in Vero cells. Format: cell-based, Zika virus. How it is done: Plaque reduction assay was performed as we previously described with slight modifications (Chan et al., 2017a). Briefly, Vero cells were seeded at 2×10^5 cells/well in 24-well tissue culture plates on the day before carrying out the assay. After 24 h of incubation, 20-40 plaque-forming units (PFU) of ZIKV were added to the cell monolayer with or without the addition of drug compounds and the plates were further incubated for 1 h at 37° C. in 5% CO2 before removal of unbound viral particles by aspiration of the media and washing once with MEM. Monolayers were then overlaid with media containing 1% low melting agarose (Cambrex Corporation, New Jersey, USA) in MEM and appropriate concentrations of drug compounds, inverted and incubated as above for another 96 h. The wells were then fixed with 10% formaldehyde (BDH, Merck, Darmstadt, Germany) overnight. After removal of the agarose plugs, the monolayers were stained with 0.7% crystal violet (BDH, Merck) and the plaques were counted. The percentage of plaque inhibition relative to the control (i.e. without the addition of compound) wells were determined for each drug compound concentration.

For the next data set, the target named is ZIKV NS2B-NS3 protease (Zika virus, UniProt A0A024B7W1, DEL1468-1502). The format is biochemical. The following applies: 10 μM substrate, 5 nM protease.
Sequence of ZIKV NS2B-NS3 protease (A0A024B7W1 1502-1672, added parts left off, stated change not applied): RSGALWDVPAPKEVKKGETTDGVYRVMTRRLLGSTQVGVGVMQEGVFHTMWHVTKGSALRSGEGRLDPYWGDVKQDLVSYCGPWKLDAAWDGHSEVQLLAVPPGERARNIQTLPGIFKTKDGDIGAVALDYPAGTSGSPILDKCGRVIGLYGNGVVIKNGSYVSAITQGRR
Data set [7] in a line: Cell viability (MTT) assay in Huh-7 cells. The note with it: human. The format is cell-based. How it is done: as §1
Data set [8] can be described thus: Cell viability (MTT) assay in Vero cells. The format is cell-based. The note with it: African green monkey. How it is done:
as §1

Values after ≈ are worked out from the molar mass of the structure shown. “Also recorded” adds a separate entry of the source. A value given as a limit tells only on which side of the number the result lay.

In turn, `CO[C@@H]1[C@@H](OC(N)=O)[C@@H](O)[C@H](Oc2ccc3c(O)c(NC(=O)c4ccc(O)c(CC=C(C)C)c4)c(=O)oc3c2C)OC1(C)C` [Novobiocin] yielded a Survival in the data set on ZIKV [1] (100 mg/kg q12 h sc 1-13 dpi, vs 0% untreated control mice, P<0.05) of 100%. Further, the “ZIKV-NS1 antigen expression in organ tissues (immunohistochemical staining)” value with ZIKV [1] (5 dpi) was “minimal; also recorded: rarely detected”. For the same compound, in the data set with ZIKV [1] (5 dpi and 14 dpi, incl. testis and kidney), the “Mean viral loads in the blood and the major organ tissues” value is listed as “significantly reduced”. The “Weight loss after dexamethasone withdrawal” value in the data set on ZIKV [1] (ZIKV-inoculated, 100 mg/kg q12 h sc) is not above 8%. In the data set on ZIKV [1] (ZIKV-inoculated, 100 mg/kg q12 h sc, recovered at 13-14 dpi), the “Clinical symptoms after dexamethasone withdrawal” value is given as “minimal clinical symptoms”. Moreover, the “Inflammatory infiltrates in organ tissues (H&E)” value in the data set with ZIKV [1] (after dexamethasone withdrawal, 12 or 14 dpi) is “little inflammatory infiltrate; also recorded: no or mild inflammatory infiltrate, and preserved tissue architecture; also recorded: minimal inflammatory infiltrates”. Further, the “Reduction of mean viral loads in blood and most major organ tissues vs untreated control mice” value in the data set on ZIKV [1] (at both 5 dpi and 14 dpi, qRT-PCR normalized by β-actin) is given as not below 2 log. Besides, the Clinical tolerability result in data set [2] is on record as “generally well tolerated clinically”. Besides, the IC50 with ZIKV [3] was found to be 53.3 ± 2.48 µg/mL (≈ 86.9 µM); in [5], 38.1 ± 4.53 µg/mL (≈ 62.3 µM); in the data set on ZIKV [6] (Zika virus, Vero cells) it was 15.21 ± 0.14 µg/mL (≈ 24.8 µM). For the same compound, the “Reduction in virus titer” value in data set [4] is reported as “dose-dependent reduction in virus titer”. Also, the Plaque reduction with ZIKV [6] (at concentrations ≥50.00 μg/ml) amounted to 100%. Also, the “Effect of increasing drug concentrations on protease activity” value on ZIKV NS2B-NS3 protease is given as “dose-dependent reduction in protease activity”. The values for the CC50 at 24 h in [7] and in [8] were 1100 µg/mL (≈ 1800 µM) and 850 µg/mL (≈ 1390 µM), respectively.
